Assay results from patent US6884818B1, “Pharmaceutical compositions containing 8-chloro-3 (β-diethylaminoethyl)-4-methyl-7-ethoxycarbonylmethoxy coumarin base and the salts thereof with cholesterol-lowering activity” (Fidia Farmaceutici S.p.A., priority 1999, dated 2005).

Experiments:
[1] = test system: hypercholesterolaemic-diabetic rabbits; experiment: Test No. 2: weekly cholesterol levels in rabbits with alloxan diabetes on 1% cholesterol diet; type: in vivo
Excerpt: In the same experimental model, in which a diabetic pathology is induced by treating the animals with alloxan, and hypercholesterolaemia is induced by administering a 1% cholesterol diet, we monitored at weekly intervals the cholesterol levels of the rabbits, which had been divided into the following treatment groups: • 1. Control, treated with saline solution • 2. Scoparone • 3. Cloricromene

[2] = test system: patients with Peripheral Vascular Disease (PVD) at Fontaine stage II; experiment: Multicentre, double-blind, randomised, placebo-controlled study in patients with Peripheral Vascular Disease (Fontaine stage II); type: in vivo, human
Excerpt: We conducted a multicentre, double-blind, randomised study, controlled versus placebo, on 159 patients with Peripheral Vascular Disease (PVD) at Fontaine stage II, the classic symptom of which is Intermittent Claudication (IC).
In our study, besides assessing the effect of cloricromene on IC, we also studied the cholesterol-lowering effects of the drug and the incidence of major cardiovascular events (myocardial infarction, stroke, vascular death, progression to Fontaine stages III-IV) after a treatment period of six months.
In analysing the cholesterol-lowering effect, 117 patients were considered who presented cholesterol values at baseline of over 190 mg/dI.
The critical value of 190 mg/dl was selected on the basis of data from the international literature that report this value as the risk threshold in pathologies such as cardiac ischaemia and atherosclerosis in general, in which excessive cholesterol represents a real risk factor. Therefore, the patients who presented cholesterol values equal to or over 190 mg/dl were considered to be at risk from said pathologies.
For the purposes of this analysis, 58 patients were treated for 6 months with 200 mg of cloricromene per day (one capsule of 100 mg twice a day), while the remaining 59 patients were treated with placebo (Table). All the patients also took aspirin at a dose of 160 mg/day throughout the trial.

[3] = test system: hypercholesterolaemic-diabetic rabbits; experiment: Test No. 1: tolerability and cholesterol-lowering effect in rabbits on 1% cholesterol diet with alloxan-induced diabetes; type: in vivo, rabbit; conditions: for body weight curve: treated chronically for 4-5 weeks, weighed weekly, versus untreated control group (FIG. 1)
Method: A preliminary experiment was performed to assess the ability of cloricromene to reduce plasma levels of cholesterol and triglycerides in rabbits fed on a high-fat diet, treated chronically for 4-5 weeks. As reference product we used scoparone, as it is the only coumarin derivative of vegetable origin with a documented effect on these parameters.
The experimental model induces high levels of cholesterol and triglycerides in the plasma by a 1% cholesterol-enriched diet, simultaneously inducing diabetes by injection of alloxan, a highly toxic product for the β cells of the pancreas. In this way, it is possible to reach very high values of cholesterol and triglycerides in the system rapidly. The body weight of the animals and the plasma levels of the test parameters were assessed weekly throughout the experiment.

[4] = test system: rabbits on a high-cholesterol diet; experiment: Test No. 3: cholesterol levels in rabbits on 0.1% cholesterol diet without diabetes; type: in vivo, rabbit; conditions: cholesterol around 250 mg/dl, versus control group and scoparone group (FIG. 3)
Method: As further confirmation of this interesting result, we prepared another experimental model. In this case, hypercholesterolaemia was induced in rabbit by administration of a 0.1% cholesterol diet, without simultaneously inducing diabetes. In these experimental conditions, cholesterol levels of around 250 mg/dl were obtained, that is to say, values that are compatible with the pathological situation normally observed in humans affected by hypercholesterol. The rabbits were divided into three treatment groups: controls treated with saline, a second group receiving scoparone and a third receiving cloricromene.

[5] = 1% cholesterol diet + alloxan, 4-5 weeks, cloricromene group versus scoparone group

Row | Structure (SMILES) | cholesterol levels ([1]; 1% cholesterol diet + alloxan, versus saline control and scoparone, evident from third week of treatment (FIG. 2)) | Cholesterol levels at week 24 ([2]; 58 patients with baseline cholesterol over 190 mg/dl, after 6 months of 200 mg cloricromene per day (100 mg capsule twice a day), plus aspirin 160 mg/day, p = 0.0035 vs week 0) | Cholesterol levels at Week 0 ([2]; 58 patients with baseline cholesterol over 190 mg/dl, baseline before 200 mg cloricromene per day, plus aspirin 160 mg/day) | difference in cholesterol between treatment groups (analysis of covariance) ([2]; cloricromene versus placebo, 6 months, p=0.04, α=0.05) | major cardiovascular events or deaths ([2]; patients, treatment period of six months) | plasma levels of cholesterol [3, 5] | plasma levels of triglycerides [3, 5] | body weight curve ([3]; 1% cholesterol diet + alloxan) | toxic activity on repeated administration over long periods ([3]; repeated administration, in comparison to scoparone) | cholesterol levels [4] | number of animals that completed the treatment ([1]; end of experiment, scoparone group versus cloricromene group)
1 | CCOC(=O)COc1ccc2c(C)c(CCN(CC)CC)c(=O)oc2c1Cl [cloricromene, 8-chloro-3(β-diethylaminoethyl)-4-methyl-7-ethoxycarbonylmethoxy coumarin] | markedly lower than those of both the control group and that treated with scoparone | 229 ± 32 | 243 ± 31 | statistically significant in favour of the group treated with cloricromene | no major cardiovascular events or deaths were observed | tended to be lower | tended to be lower | superimposable on that of the control group | absolute lack of toxic activity | markedly lower | –
2 | COc1cc2ccc(=O)oc2cc1OC [scoparone] | – | – | – | – | – | – | – | marked and progressive reduction in body weight | – | – | considerably lower
